Test results published in patent US10407407B2, “Benzoimidazole derivatives as PAD4 inhibitors” (GLAXOSMITHKLINE INTELLECTUAL PROPERTY DEVELOPMENT LIMITED, priority 2015, dated 2019).

target: T1, Recombinant human PAD2 (residues 1-665) (Homo sapiens, UniProt Q9Y2J8); assay: PAD2 enzyme assay (FLINT NH3 release, BAEE substrate); format: biochemical; settings: PAD2 enzyme assay above or similar assays; to assess selectivity for PAD4 over PAD2; read-out: mean pIC50 (converted)
T1 construct: Recombinant human PAD2 (residues 1-665) was expressed in baculovirus-infected Sf9 insect cells; 6His-FLAG (N); made in house; host or cells: baculovirus-infected Sf9 insect cells
T1 sequence (Q9Y2J8 whole entry, the tested form may be a part): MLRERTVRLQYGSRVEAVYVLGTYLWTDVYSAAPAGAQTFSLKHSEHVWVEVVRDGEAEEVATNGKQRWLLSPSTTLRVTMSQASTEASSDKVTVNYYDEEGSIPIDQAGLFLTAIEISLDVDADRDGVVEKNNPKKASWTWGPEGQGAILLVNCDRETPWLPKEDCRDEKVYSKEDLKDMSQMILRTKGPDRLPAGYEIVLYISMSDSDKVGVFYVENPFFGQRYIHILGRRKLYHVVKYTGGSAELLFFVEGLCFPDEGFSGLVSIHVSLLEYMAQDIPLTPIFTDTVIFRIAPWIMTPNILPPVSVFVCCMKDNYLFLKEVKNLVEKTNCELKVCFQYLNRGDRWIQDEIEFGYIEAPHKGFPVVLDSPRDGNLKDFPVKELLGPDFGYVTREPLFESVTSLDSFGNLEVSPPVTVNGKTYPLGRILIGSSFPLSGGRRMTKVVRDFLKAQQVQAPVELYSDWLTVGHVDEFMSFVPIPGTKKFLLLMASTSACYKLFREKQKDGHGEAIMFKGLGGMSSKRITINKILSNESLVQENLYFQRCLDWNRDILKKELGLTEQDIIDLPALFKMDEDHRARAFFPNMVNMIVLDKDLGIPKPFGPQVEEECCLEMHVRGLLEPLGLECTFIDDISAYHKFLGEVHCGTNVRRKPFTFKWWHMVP
Protocol: Activity of the final product was determined using a FLINT NH3 release assay.
8 μl of PAD2 enzyme diluted to an assay concentration of 30 nM in assay buffer (100 mM HEPES, 50 mM NaCl, 2 mM DTT, 7.5% glycerol and 1.5 mM CHAPS pH 8), and added to wells containing 0.1 μl of various concentrations of compound or DMSO vehicle (0.8% final) in a Greiner high volume 384 well black plate. […] The reaction was stopped after 90 mins with the addition of […] stop/detection buffer containing 50 mM EDTA, 2.6 mM phthalaldehyde and 2.6 mM DTT.

With `CCn1c(-c2nc3cc(C(=O)N4CC[C@@H](O)[C@@H](N)C4)cc(OC)c3n2C)cc2ccccc21` [Example 67, ((3S,4R)-3-Amino-4-hydroxypiperidin-1-yl)(2-(1-ethyl-1H-indol-2-yl)-7-methoxy-1-methyl-1H-benzo[d]imidazol-5-yl)methanone] as the molecule, how does the IC50 read?
The IC50 was > 79.4 µM.

For `CCn1c(-c2nc3cc(C(=O)N4CCC[C@@H](N)C4)cc(OCCOC)c3n2C)cc2ccccc21` [Example 111, (R)-(3-Aminopiperidin-1-yl)(2-(1-ethyl-1H-indol-2-yl)-7-(2-methoxyethoxy)-1-methyl-1H-benzo[d]imidazol-5-yl)methanone], which IC50 is on record?
The IC50 was ≥ 10 µM.

How did the IC50 turn out when `Cn1c(-c2cc3ccccc3n2CC2CC2)nc2cc(C(=O)N3CCC[C@@H](N)C3)ccc21` [Example 16, (3R)-1-({2-[1-(Cyclopropylmethyl)-1H-indol-2-yl]-1-methyl-1H-benzimidazol-5-yl}carbonyl)-3-piperidinamine] was run?
Its IC50 is ≥ 10 µM.

`CCn1c(-c2nc3cc(C(=O)N4CCC[C@@H](N)C4)cnc3n2C)cc2ccccc21` [Example 96, (R)-(3-Aminopiperidin-1-yl)(2-(1-ethyl-1H-indol-2-yl)-3-methyl-3H-imidazo[4,5-b]pyridin-6-yl)methanone] was tested. Which IC50 did it give?
Its IC50 is > 79.4 µM.

Which IC50 does the source give for `CCn1c(-c2nc3cc(C(=O)N4CCC[C@@H](N)C4)cc(OCC(N)=O)c3n2C)cc2ccccc21` [Example 114, (R)-2-((5-(3-Aminopiperidine-1-carbonyl)-2-(1-ethyl-1H-indol-2-yl)-1-methyl-1H-benzo[d]imidazol-7-yl)oxy)acetamide] here?
Its IC50 is > 79.4 µM.

With `CCn1c(-c2nc3cc(C(=O)N4CCC[C@@H](N)C4)cc(OC(F)(F)F)c3n2C)cc2ccccc21` [Example 34, (R)-(3-Aminopiperidin-1-yl)(2-(1-ethyl-1H-indol-2-yl)-1-methyl-7-(trifluoromethoxy)-1H-benzo[d]imidazol-5-yl)methanone] as the molecule, how does the IC50 read?
The IC50 was ≥ 10 µM.

`COCCn1c(-c2nc3cc(C(=O)N4CCC[C@@H](N)C4)ccc3n2C)cc2ccccc21` [Example 22, (3R)-1-[(1-methyl-2-{1-[2-(methyloxy)ethyl]-1H-indol-2-yl}-1H-benzimidazol-5-yl)carbonyl]-3-piperidinamine] was tested. Which IC50 did it give?
Its IC50 is > 79.4 µM.

How did the IC50 turn out when `CCn1c(-c2nc3cc(C(=O)N4CCC[C@@H](N)C4)ccc3n2CCN)cc2ccccc21` [Example 48, (R)-(1-(2-Aminoethyl)-2-(1-ethyl-1H-indol-2-yl)-1H-benzo[d]imidazol-5-yl)(3-aminopiperidin-1-yl)methanone] was run?
Its IC50 is ≥ 10 µM.

Which IC50 does the source give for `CC(C)Cn1c(-c2nc3cc(C(=O)N4CCC[C@@H](N)C4)ccc3n2C)cc2ccccc21` [Example 19, (3R)-1-({1-Methyl-2-[1-(2-methylpropyl)-1H-indol-2-yl]-1H-benzimidazol-5-yl}carbonyl)-3-piperidinamine] here?
The IC50 was ≥ 10 µM.

`CCn1c(-c2nc3cc(C(=O)N4CCC[C@@H](N)C4)cc(N(C)C)c3n2C)cc2ccccc21` [Example 63, (R)-(3-Aminopiperidin-1-yl)(7-(dimethylamino)-2-(1-ethyl-1H-indol-2-yl)-1-methyl-1H-benzo[d]imidazol-5-yl)methanone] was tested. Which IC50 did it give?
Its IC50 is > 79.4 µM.

For `CCn1c(-c2nc3cc(C(=S)N4CCC[C@@H](N)C4)ccc3n2C)cc2ccccc21` [Example 135, (R)-(3-Aminopiperidin-1-yl)(2-(1-ethyl-1H-indol-2-yl)-1-methyl-1H-benzo[d]imidazol-5-yl)methanethione], which IC50 is on record?
Its IC50 is ≥ 10 µM.

Which IC50 does the source give for `COc1cc(C(=O)N2CCC[C@@H](N)C2)cc2nc(-c3cc4ccccc4n3CC3CCOCC3)n(C)c12` [Example 70, (R)-(3-Aminopiperidin-1-yl)(7-methoxy-1-methyl-2-(1-((tetrahydro-2H-pyran-4-yl)methyl)-1H-indol-2-yl)-1H-benzo[d]imidazol-5-yl)methanone] here?
Its IC50 is > 79.4 µM.

With `CCOc1ccc2cc(-c3nc4cc(C(=O)N5CCC[C@@H](N)C5)ccc4n3C)n(CC)c2c1` [Example 32, (R)-(3-Aminopiperidin-1-yl)(2-(6-ethoxy-1-ethyl-1H-indol-2-yl)-1-methyl-1H-benzo[d]imidazol-5-yl)methanone] as the molecule, how does the IC50 read?
Its IC50 is ≥ 10 µM.

How did the IC50 turn out when `Cn1cc(Cn2c(-c3nc4cc(C(=O)N5CCC[C@@H](N)C5)ccc4n3C)cc3ccccc32)cn1` [Example 20a, (3R)-1-[(1-methyl-2-{1-[(1-methyl-1H-pyrazol-4-yl)methyl]-1H-indol-2-yl}-1H-benzimidazol-5-yl)carbonyl]-3-piperidinamine] was run?
Its IC50 is ≥ 10 µM.

With `CCn1c(-c2nc3cc(C(=O)N4CCC[C@@H](N)C4)cc(OCC#N)c3n2C)cc2ccccc21` [Example 113, (R)-2-((5-(3-Aminopiperidine-1-carbonyl)-2-(1-ethyl-1H-indol-2-yl)-1-methyl-1H-benzo[d]imidazol-7-yl)oxy)acetonitrile] as the molecule, how does the IC50 read?
Its IC50 is ≥ 10 µM.

With `Cn1c(-c2nc3cc(C(=O)N4CCC[C@@H](N)C4)ccc3n2C)cc2ccccc21` [Example 37, (R)-(3-Aminopiperidin-1-yl)(1-methyl-2-(1-methyl-1H-indol-2-yl)-1H-benzo[d]imidazol-5-yl)methanone] as the molecule, how does the IC50 read?
Its IC50 is > 79.4 µM.

`COc1cc(C(=O)N2CC[C@@H](O)[C@@H](N)C2)cc2nc(-c3cc4ccccc4n3CC(F)(F)F)n(C)c12` [Example 58a, ((3S,4R)-3-Amino-4-hydroxypiperidin-1-yl)(7-methoxy-1-methyl-2-(1-(2,2,2-trifluoroethyl)-1H-indol-2-yl)-1H-benzo[d]imidazol-5-yl)methanone] was tested. Which IC50 did it give?
Its IC50 is ≥ 10 µM.

For `CCn1c(-c2nc3cc(C(=O)N4CCC[C@@H](N)C4)ccc3n2C)cc2ccccc21` [Example 1a], which IC50 is on record?
Its IC50 is ≥ 10 µM.

For `CCn1c(-c2nc3cc(C(=O)N4CC[C@H](OC)[C@@H](N)C4)ccc3n2C)cc2ccccc21` (racemic) [Example 51, (+/−)-((trans)-3-Amino-4-methoxypiperidin-1-yl)(2-(1-ethyl-1H-indol-2-yl)-1-methyl-1H-benzo[d]imidazol-5-yl)methanone], which IC50 is on record?
Its IC50 is > 79.4 µM.

Which IC50 does the source give for `Cn1c(-c2cc3ccccc3[nH]2)nc2cc(C(=O)N3CCC[C@@H](N)C3)ccc21` [Example 18, (3R)-1-{[2-(1H-Indol-2-yl)-1-methyl-1H-benzimidazol-5-yl]carbonyl}-3-piperidinamine] here?
The IC50 was ≥ 10 µM.

How did the IC50 turn out when `CCn1c(-c2nc3cc(C(=O)N4CCC[C@@H](N)C4)ccc3n2CC)cc2ccccc21` [Example 95, (R)-(3-Aminopiperidin-1-yl)(1-ethyl-2-(1-ethyl-1H-indol-2-yl)-1H-benzo[d]imidazol-5-yl)methanone] was run?
Its IC50 is > 79.4 µM.

`COc1cc(C(=O)N2CCC[C@@H](N)C2)cc2nc(-c3cc4ccccc4n3CC#N)n(C)c12` [Example 74, (R)-2-(2-(5-(3-Aminopiperidine-1-carbonyl)-7-methoxy-1-methyl-1H-benzo[d]imidazol-2-yl)-1H-indol-1-yl)acetonitrile] was tested. Which IC50 did it give?
Its IC50 is ≥ 10 µM.

With `CCn1c(-c2nc3cc(C(=O)N4C[C@H](C)C[C@H](N)C4)ccc3n2C)cc2ccccc21` (single isomer, unassigned) [Example 124, cis-(3-Amino-5-methylpiperidin-1-yl)(2-(1-ethyl-1H-indol-2-yl)-1-methyl-1H-benzo[d]imidazol-5-yl)methanone] as the molecule, how does the IC50 read?
The IC50 was > 79.4 µM.

For `CCc1cc(C(=O)N2CCC[C@@H](N)C2)cc2nc(-c3cc4ccccc4n3CC)n(C)c12` [Example 75, (R)-(3-Aminopiperidin-1-yl)(7-ethyl-2-(1-ethyl-1H-indol-2-yl)-1-methyl-1H-benzo[d]imidazol-5-yl)methanone], which IC50 is on record?
Its IC50 is ≥ 10 µM.

`Cn1c(-c2cc3ccccc3n2CCO)nc2cc(C(=O)N3CCC[C@@H](N)C3)ccc21` [Example 29, 2-[2-(5-{[(3R)-3-Amino-1-piperidinyl]carbonyl}-1-methyl-1H-benzimidazol-2-yl)-1H-indol-1-yl]ethanol] was tested. Which IC50 did it give?
Its IC50 is > 79.4 µM.

`CCn1c(-c2nc3cc(C(=O)N4C[C@@H](N)CC[C@H]4C)ccc3n2C)cc2ccccc21` (single isomer, unassigned) [Example 54, cis-(5-Amino-2-methylpiperidin-1-yl)(2-(1-ethyl-1H-indol-2-yl)-1-methyl-1H-benzo[d]imidazol-5-yl)methanone] was tested. Which IC50 did it give?
Its IC50 is > 79.4 µM.

Which IC50 does the source give for `CC(C)n1c(-c2nc3cc(C(=O)N4CCC[C@@H](N)C4)ccc3n2C)cc2ccccc21` [Example 12, (3R)-1-({1-Methyl-2-[1-(1-methylethyl)-1H-indol-2-yl]-1H-benzimidazol-5-yl}carbonyl)-3-piperidinamine] here?
Its IC50 is ≥ 10 µM.

How did the IC50 turn out when `CCn1c(-c2nc3cc(C(=O)N4CCC[C@@H](N)C4)cc(NC)c3n2C)cc2ccccc21` [Example 68, (R)-(3-Aminopiperidin-1-yl)(2-(1-ethyl-1H-indol-2-yl)-1-methyl-7-(methylamino)-1H-benzo[d]imidazol-5-yl)methanone] was run?
Its IC50 is > 79.4 µM.

`COc1cc(C(=O)N2CC[C@H](O)[C@H](N)C2)cc2nc(-c3cc4ccccc4n3CC(F)(F)F)n(C)c12` [Example 59, ((3R,4S)-3-Amino-4-hydroxypiperidin-1-yl)(7-methoxy-1-methyl-2-(1-(2,2,2-trifluoroethyl)-1H-indol-2-yl)-1H-benzo[d]imidazol-5-yl)methanone] was tested. Which IC50 did it give?
The IC50 was ≥ 10 µM.

With `CCn1c(-c2nc3cc(C(=O)N4CCC[C@@H](N)C4)ccc3n2C)cc2cccc(OC)c21` [Example 2, (3R)-1-({2-[1-ethyl-7-(methyloxy)-1H-indol-2-yl]-1-methyl-1H-benzimidazol-5-yl}carbonyl)-3-piperidinamine] as the molecule, how does the IC50 read?
The IC50 was ≥ 10 µM.
